Patent publication EP2699223B1, “NEW COSMETIC USES OF GHK TRIPEPTIDE” (Sederma, priority 2011, dated 2012)
Peptide text beside a SMILES is read from it. * marks the point of attachment. Biotin = O=C1N[C@H]2[C@H](CS[C@H]2CCCCC(=O)*)N1

Legend:
Format in all cases: in vivo, female volunteers
[1] = tested on: lashes; assay: Lash length by photo measurement and image analysis, double-blind clinical study, mascara on one eye versus placebo on the other; conditions: length and diameter, 15 and 30 days
Description: The purpose of the clinical study was to evaluate the following among volunteers: • lash lengthening, • lash thickening, • reinforcement of lash anchorage (decrease in lash loss during mascara removal).
(§1) Lashes were photographed in a precise manner that could be reproduced and at a special angle so that lashes could be viewed perfectly. An image analysis was then performed on these photographs to quantify lash length and diameter in the central segment of the lids of female volunteers.
(§2) This was a double-blind study that employed non-invasive methods. 30 female volunteers used two mascaras: 1) VOLUMISING BLACK MASCARA (according to Example 1) containing 0.00066% of Biot-GHK and 0.01% of panthenol on one eye and 2) its placebo on the other eye (same formula without the active ingredients of the invention).
The measurements were performed before application (TO) then after 15 and 30 days of daily application. Application during the eight hours preceding a measurement day was not allowed. […]
(§3) Once the head was correctly positioned on an appropriate mechanism, the lashes were frontally photographed using a Reflex Nikon D300 (12.3 megapixel) digital camera with a "macro" (60 mm F/2.8 GED) lens and a flash. The images were analysed with special software. […] The lengths and diameters were measured on the lashes of segments S2, S3 and S4 (5 lashes per segment) on each side.

[2] = tested on: lashes; assay: Lash diameter by photo measurement and image analysis, same double-blind clinical study; conditions: after 30 days of daily use; 2% in a basic mascara formula
Description: as §1, §2
The measurements were performed before application (TO) then after 15 and 30 days of daily application. Application during the eight hours preceding a measurement day was not allowed.
The volunteers had to apply each mascara as follows: 3 brush strokes to the outside lashes, 4 brush strokes to the central lashes and 3 brush strokes to the interior lashes. […]
as §3, with “side. […]” for “side.”

[3] = tested on: lashes; assay: Blind clinical evaluation of lash photos by 3 trained experts (lengthening, thickening); conditions: summary statement
Description: Concurrent to this quantitative metrological study, two other evaluations were performed: one clinical evaluation in which trained experts scored photos and another evaluation in which the volunteers themselves evaluated the perceived effects using a multi-item questionnaire.
as §2
Table 3: Blind evaluation performed by 3 trained experts on lash lengthening in photos of 30 volunteers.
Table 4: Blind evaluation performed by 3 trained experts on increased lash diameter in photos of 30 volunteers

NCCCC[C@H](NC(=O)[C@H](Cc1c[nH]cn1)NC(=O)CNC(=O)CCCC[C@@H]1SC[C@@H]2NC(=O)N[C@@H]21)C(=O)O [Biot-GHK peptide, Biotinoyl tripeptide-1] (Biotin-Gly-His-Lys-OH)
Result higher than the increase of parameters with the placebo [1]: about 60%
Increase printed as "volume" [2]: +14.2 mm^3
Subjects in whom the variation was observed (first of "respectively": length) [3]: 87%
Subjects in whom the variation was observed (second of "respectively": diameter, printed volume) [3]: 73%
